In article PMC9706920, “Aryloxypropanolamine targets amyloid aggregates and reverses Alzheimer-like phenotypes in Alzheimer mouse models” (Alzheimer's Research & Therapy, 2022):

Key:
5XFAD mice [1] = test: Western blot of brain lysates of 5XFAD mice; type: in vivo, mouse; details: 50 mg/kg/day, 5 weeks
Description: (§1) To test the in vivo efficacy of YIAD001 and YIAD002, female 5XFAD mice (n = 25) and female wildtype mice (n = 7) were assessed at the age of 4.5 months. YIAD compounds were dissolved in DMSO and diluted in drinking water to a final concentration of 50 mg/kg/day (5% DMSO, 5% Tween) for oral administration. The three compounds, YIAD001, YIAD002, and YIAD003, were freely administered via drinking water to 4.5-month-old 5XFAD mice (n = 6 for each group) for 5 weeks. As a control, 5% DMSO, 5% Tween in drinking water was provided ad libitum to littermate 5XFAD mice (n = 7) and wildtype mice (n = 7) for 5 weeks.
(§2) After the administration period, the mice were deeply anaesthetized with 4% avertin through intraperitoneal injection and transcardially perfused with 0.9% saline. Subsequently, the mice were sacrificed for brain excision. Each collected brain was divided through the mid-sagittal section; the hippocampal and cortical regions were dissected from one half and stored at −80°C for subsequent brain lysates, while the other half was immersed in 4% paraformaldehyde (pH 7.4) for 24 h and 30% sucrose for 48 h at 4°C and subsequently deep-froze at −80°C for immunohistochemistry.
(§3) Isolated cortical and hippocampal tissue samples were homogenized in ice-cold RIPA buffer with protease inhibitor cocktail and phosphatase inhibitor cocktail. Lysed tissues were incubated in ice for 30 min and subsequently centrifuged at 14,000 rpm at 4°C for 30 min. The supernatants of the brain lysates were collected and soluble protein concentrations were quantified with the Pierce BCA protein assay kit (Thermo Fisher Scientific, USA).
Western blot analysis was performed to assess YIAD002-induced alterations of protein biomarkers in 5XFAD mice brain lysates. Twenty micrograms of lysate samples were loaded onto 12% tris-tricine gels, separated by SDS-PAGE, and transferred to nitrocellulose membranes. Membranes were blocked by 5% skim milk or 5% BSA in TBS-T. The following primary antibodies were used for immunoblotting: anti-6E10 for APP (1:1000, Biolegend 803003), anti-AT8 (1:1000, Invitrogen MN1020), anti-Tau (1:1000, Santa Cruz SC390476), anti-ionized calcium-binding adapter molecule (Iba1) (1:1000, CST, 17198S), anti-glial fibrillar acidic protein (GFAP) (1:2000, Milipore AB5541), anti-postsynaptic density protein 95 (PSD95) (1:1000, CST 3450S), anti-synaptophysin (1:1000, Milipore MAB5258), and anti-β-Actin (1:10,000, Milipore MAB1501). Membranes were incubated with primary antibodies at 4°C overnight and probed with HRP-conjugated IgG antibodies (1:10,000) in RT for an hour. Proteins were detected using an ECL kit (Thermo Fisher Scientific, USA). Membranes were washed with TBS-T in between steps, three times for 10 min.

5XFAD mice [2] = test: Dot blot assay (6E10, A11) of soluble brain lysates of 5XFAD mice, incl. MWCO filtration; type: in vivo, mouse; details: 50 mg/kg/day, 5 weeks; for Total Aβ (6E10) in cortical lysates after GdnHCl denaturation and 100 kDa MWCO filtration: APP removed
Description: as §1, §2, §3
To analyze total and oligomeric amyloid levels, protein samples (12 μg in 2 μL) and prepared in vitro disaggregation assay samples (2 μL) were directly blotted on nitrocellulose membranes. After blocking with 5% skim milk in TBS-T, the membranes were probed with anti-6E10 antibody (1:1,000, Biolegend 803003) and anti-A11 antibody (1:2000, Invitrogen AHB0052) at 4°C overnight. HRP-conjugated goat anti-mouse antibody (1:10,000, Bethyl Laboratories A90-116P) and anti-rabbit secondary antibody (1:10,000, Bethyl Laboratories A120-101P) were used for 6E10 and A11, respectively. Proteins were detected using an ECL kit (Thermo Fisher Scientific, USA). Membranes were washed with TBS-T in between steps, three times for 10 min.
To exclusively investigate soluble Aβ levels in cortical lysates, guanidinium hydrochloride (GdnHCl) in a lysis buffer (5.0 M GdnHCl, 50 mM Tris-HCl, pH 8.0) was utilized to solubilize and denature endogenous Aβ aggregates prior to filtration. The homogenates were incubated with agitation for 3 h at RT. The incubated samples were then quantified to prepare protein samples (10 μg in 4 μL) and were filtered through a 100 kDa molecular weight cut-off (MWCO) filter, centrifuged at 14,000 rpm at RT for 30 min, to remove APP. For subsequent dot blot assay, total […] of the filtrate was spotted onto a nitrocellulose membrane and probed with anti-6E10 antibody (1:1000, Biolegend 803003).

Aβ(1–42) aggregates = biological target: T1, Aβ(1–42) aggregates (Homo sapiens, UniProt P05067); test: SDS-PAGE with PICUP and silver staining; type: biochemical; details: 500 μM compound, aggregated Aβ(1–42)
T1 construct: made in house; host or cells: chemical synthesis (Fmoc solid phase peptide synthesis)
T1 sequence (P05067 672-713 limits assumed): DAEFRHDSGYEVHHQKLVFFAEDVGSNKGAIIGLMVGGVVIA
Description: SDS-PAGE with photo-induced cross-linking of unmodified proteins (PICUP) and silver staining was used to evaluate the disaggregating effects of YIAD001 and YIAD002 by visualizing the size distributions and band intensity of Aβ(1–42). Samples were prepared under the same conditions as the Aβ(1–42) disaggregation ThT fluorescence assay. Amyloid proteins in the samples from the aforementioned disaggregation assay were subjected to cross-linking, initiated by irradiation (three exposures, each for 1 second) in the presence of tris(2,2′-bipyridyl)dichlororuthenium(II) hexahydrate (Ru(Bpy)) (1 mM) and 1 μL of ammonium persulfate (20 mM). Reactions were immediately quenched with β-mercaptoethanol and boiled for 5 min at 95°C. After cross-linking the samples, we separated amyloid species by SDS-PAGE on a 15% tris-tricine gel and performed silver staining according to the PlusOne Silver Staining kit protocol (GE Healthcare, USA).

[3] = Microsomal stability, human; type: in vitro ADME; details: 1 μM, 30 min, 37°C
Description: To evaluate the rate of drug metabolism, we tested YIAD002 stability in liver microsomes of human, rat, and mouse. Microsomal concentration was 0.5 mg/ml in 0.1 M phosphate buffer (pH 7.4). 1 μM of YIAD002 was added to microsome solutions and was prewarmed at 37°C for 5 min. NADPH-regenerating solution was added to microsomes and incubated at 37°C for 30 min. At the end of incubation, acetonitrile with chlorpropamide was added to stop reactions and microsomal solutions were centrifuged at 14,000 rpm at 4°C for 5 min. For LC-MS/MS analysis, supernatants were injected on a Kinetex C18 column (2.1 × 100 mm, 2.6 μm particle size, Phenomenex, USA). The composition of the mobile phase was 0.1% formic acid in water (A) and 0.1% formic acid in acetonitrile (B).

| SMILES | Cortical and hippocampal APP levels (5XFAD mice [1]) | Cortical total tau levels (5XFAD mice [1]; vs vehicle) | Increase of cortical PSD95 levels (5XFAD mice [1]; vs vehicle) [%] | Increase of cortical synaptophysin levels (5XFAD mice [1]; vs vehicle) [%] | Reduction of cortical Iba1 levels (5XFAD mice [1]; vs vehicle) [%] | Reduction of cortical phosphorylated tau (AT8) (5XFAD mice [1]; vs vehicle) | Total Aβ (6E10) in cortical lysates after GdnHCl denaturation and 100 kDa MWCO filtration (5XFAD mice [2]) | 6E10-detected total Aβ, cortical lysates (5XFAD mice [2]; soluble fraction) | 6E10-detected total Aβ, hippocampus (5XFAD mice [2]; soluble fraction) | A11-detected oligomer levels, cortical lysates (5XFAD mice [2]; soluble fraction) | Size distribution of Aβ(1–42) bands (fibrils, monomers) (Aβ(1–42) aggregates) | melting point [°C] | Reduction of GFAP expression (5XFAD mice [1]; cortical lysates, vs vehicle) [%] | Oligomeric Aβ content (A11), hippocampus (5XFAD mice [2]; soluble fraction) | Remaining compound in human microsomes [3] [%] |
| --- | --- | --- | --- | --- | --- | --- | --- | --- | --- | --- | --- | --- | --- | --- | --- |
| CCC(C)(C)c1ccc(OCC(O)CN2CCOCC2)c(C(C)(C)CC)c1.Cl (stereo not drawn) [YIAD001, 4-(3-(2,4-Di-tert-pentylphenoxy)-2-hydroxypropyl)morpholin-4-ium chloride] | did not induce significant shift | not affected | 44.59 | 38.68 | 26.08 | did not affect | reduction of Aβ | significantly reduced | not significantly changed | trend of reduction | reduced fibrils and increased monomers | 192.5 to 193.1 | – | – | – |
| CCC(C)(C)c1ccc(OCC(O)CN2CCCC2)c(C(C)(C)CC)c1.Cl (stereo not drawn) [YIAD002, 1-(3-(2,4-Di-tert-pentylphenoxy)-2-hydroxypropyl)pyrrolidin-1-ium chloride] | did not induce significant shift | not affected | 51.97 | 57.47 | 32.11 | 35.29% | reduction of Aβ | significantly reduced | not significantly changed | trend of reduction | reduced fibrils and increased monomers | 179.8 to 180.7 | 32.76 | significantly reduced | 55.5 |
